Measured values: patent publication US20260015350A1, “AZAQUINAZOLINE PAN-KRAS INHIBITORS” (Mirati Therapeutics, Inc., priority 2022, published 2026)

Key:
[1] = test system: KRas-mediated phosphorylation of ERK in H358 cells; assay: Inhibition of KRas-mediated phosphorylation of ERK (Cisbio HTRF pERK), H358 cells; type: cell-based; settings: Homo sapiens; for inhibition at 0.1 µM: NCI-H358, 3 h, single point, 100 nM compound, 3 hrs; for IC50: NCI-H358, HTRF pERK
Summary of the method: (§1)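 Compound treatment lasts 3 hrs on 6,000 seeded cells, testing 10 doses from a 10 uM top concentration in 3-fold decrements at 0.8% final DMSO. Trametinib at 0.2 uM defines the Min signal. Detection is HTRF on cold-lysed cell extracts.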

KRas^G12R = target: T1, KRas^G12R (Homo sapiens, UniProt P01116, G12R); assay: KRas binding assay (TR-FRET tracer displacement), KRas G12R
T1 construct: Biotinylated KRas (corresponding to amino acids 1-169, produced at Accelegan Inc.); biotin (biotinylated); purchased Accelegan Inc

KRas^G12V = target: T2, KRas^G12V (Homo sapiens, UniProt P01116, G12V); assay: KRas binding assay (TR-FRET tracer displacement), KRas G12V
T2 construct: Biotinylated KRas (corresponding to amino acids 1-169, produced at Accelegan Inc.); biotin (biotinylated); purchased Accelegan Inc

KRas^WT = target: T3, KRas^WT (Homo sapiens, UniProt P01116); assay: KRas binding assay (TR-FRET tracer displacement), KRas WT; settings: for inhibition at 0.01 µM: single point, 10 nM compound, TR-FRET; for IC50: TR-FRET tracer displacement, KRas WT
T3 construct: Biotinylated KRas (corresponding to amino acids 1-169, produced at Accelegan Inc.); biotin (biotinylated); purchased Accelegan Inc

[2] = test system: KRas-mediated phosphorylation of ERK in MKN1 cells; assay: Inhibition of KRas-mediated phosphorylation of ERK (Cisbio HTRF pERK), MKN1 cells; type: cell-based; settings: Homo sapiens, MKN-1
Summary of the method: (§2)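 Seeding density was 6,000 cells/well; medium RPMI, 10% FBS. Read-out by homogeneous time-resolved fluorescence (pERK) after 4 hours covered at room temperature.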

[3] = test system: KRas-mediated phosphorylation of ERK in AsPC-1 cells; assay: Inhibition of KRas-mediated phosphorylation of ERK (Cisbio HTRF pERK), AsPC-1 cells; type: cell-based; settings: Homo sapiens, ASPC1, AsPC-1 cells; HTRF pERK
Summary of the method: as §1

[4] = test system: KRas-mediated phosphorylation of ERK in H460 cells; assay: Inhibition of KRas-mediated phosphorylation of ERK (Cisbio HTRF pERK), H460 cells; type: cell-based; settings: Homo sapiens; for IC50: NCI-H460, HTRF pERK
Summary of the method: as §1

[5] = test system: KRas-mediated phosphorylation of ERK in A549 cells; assay: Inhibition of KRas-mediated phosphorylation of ERK (Cisbio HTRF pERK), A549 cells; type: cell-based; settings: Homo sapiens; for inhibition at 0.1 µM: A549, 3 h, single point, 100 nM compound, 3 hrs; for IC50: HTRF pERK
Summary of the method: (§3)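 Each compound was tested at 10 concentrations, threefold apart with 10 uM the highest, for 3 hrs on 6,000 seeded cells; final DMSO was 0.8% and Trametinib (0.2 uM) served as Min control. Lysed cells were analysed for pERK by HTRF.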

KRas^G12A = target: T4, KRas^G12A (Homo sapiens, UniProt P01116, G12A); assay: KRas binding assay (TR-FRET tracer displacement), KRas G12A; settings: for inhibition at 0.01 µM: single point, 10 nM compound, TR-FRET; for IC50: TR-FRET tracer displacement, KRas G12A
T4 construct: Biotinylated KRas (corresponding to amino acids 1-169, produced at Accelegan Inc.); biotin (biotinylated); purchased Accelegan Inc

KRas^Q61H = target: T5, KRas^Q61H (Homo sapiens, UniProt P01116, Q61H); assay: KRas binding assay (TR-FRET tracer displacement), KRas Q61H; settings: for inhibition at 0.01 µM: single point, 10 nM compound, TR-FRET; for IC50: TR-FRET tracer displacement, KRas Q61H
T5 construct: Biotinylated KRas (corresponding to amino acids 1-169, produced at Accelegan Inc.); biotin (biotinylated); purchased Accelegan Inc

KRas^G12S = target: T6, KRas^G12S (Homo sapiens, UniProt P01116, G12S); assay: KRas binding assay (TR-FRET tracer displacement), KRas G12S; settings: for inhibition at 0.01 µM: single point, 10 nM compound, TR-FRET; for IC50: TR-FRET tracer displacement, KRas G12S
T6 construct: Biotinylated KRas (corresponding to amino acids 1-169, produced at Accelegan Inc.); biotin (biotinylated); purchased Accelegan Inc

KRas^G12D = target: T7, KRas^G12D (Homo sapiens, UniProt P01116, G12D); assay: KRas binding assay (TR-FRET tracer displacement), KRas G12D
T7 construct: Biotinylated KRas (corresponding to amino acids 1-169, produced at Accelegan Inc.); biotin (biotinylated); purchased Accelegan Inc

[6] = test system: KRas-mediated phosphorylation of ERK in HCT116 cells; assay: Inhibition of KRas-mediated phosphorylation of ERK (Cisbio HTRF pERK), HCT116 cells; type: cell-based; settings: Homo sapiens; for IC50: HCT-116, HTRF pERK
Summary of the method: as §3

KRas^G12C = target: T8, KRas^G12C (Homo sapiens, UniProt P01116, G12C); assay: KRas binding assay (TR-FRET tracer displacement), KRas G12C; settings: for inhibition at 0.01 µM: single point, 10 nM compound, TR-FRET; for IC50: TR-FRET tracer displacement, KRas G12C
T8 construct: Biotinylated KRas (corresponding to amino acids 1-169, produced at Accelegan Inc.); biotin (biotinylated); purchased Accelegan Inc

KRas^G13D = target: T9, KRas^G13D (Homo sapiens, UniProt P01116, G13D); assay: KRas binding assay (TR-FRET tracer displacement), KRas G13D; settings: for inhibition at 0.01 µM: single point, 10 nM compound, TR-FRET; for IC50: TR-FRET tracer displacement, KRas G13D
T9 construct: Biotinylated KRas (corresponding to amino acids 1-169, produced at Accelegan Inc.); biotin (biotinylated); purchased Accelegan Inc

[7] = test system: KRas-mediated phosphorylation of ERK in PSN1 cells; assay: Inhibition of KRas-mediated phosphorylation of ERK (Cisbio HTRF pERK), PSN1 cells; type: cell-based; settings: Homo sapiens
Summary of the method: as §2

[8] = test system: KRas-mediated phosphorylation of ERK in H727 cells; assay: Inhibition of KRas-mediated phosphorylation of ERK (Cisbio HTRF pERK), H727 cells; type: cell-based; settings: Homo sapiens, NCI-H727, H727 cells; HTRF pERK
Summary of the method: as §1

T8 sequence (P01116 1-169 isoform P01116-2 G12C): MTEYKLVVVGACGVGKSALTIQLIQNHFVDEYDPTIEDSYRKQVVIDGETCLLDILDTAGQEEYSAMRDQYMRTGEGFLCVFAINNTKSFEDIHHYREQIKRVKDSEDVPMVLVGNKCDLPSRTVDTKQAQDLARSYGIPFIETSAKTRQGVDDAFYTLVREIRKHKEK
T9 sequence (P01116 1-169 isoform P01116-2 G13D): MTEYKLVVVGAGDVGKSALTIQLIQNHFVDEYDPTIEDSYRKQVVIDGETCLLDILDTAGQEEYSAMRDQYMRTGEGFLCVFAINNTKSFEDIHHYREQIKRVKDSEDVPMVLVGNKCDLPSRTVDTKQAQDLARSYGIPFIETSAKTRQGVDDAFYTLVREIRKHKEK
T4 sequence (P01116 1-169 isoform P01116-2 G12A): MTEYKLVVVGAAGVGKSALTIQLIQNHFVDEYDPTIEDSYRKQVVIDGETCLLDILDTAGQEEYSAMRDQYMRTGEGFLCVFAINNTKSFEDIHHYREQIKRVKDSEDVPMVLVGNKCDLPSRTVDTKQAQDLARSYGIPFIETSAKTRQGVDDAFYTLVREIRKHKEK
T5 sequence (P01116 1-169 isoform P01116-2 Q61H): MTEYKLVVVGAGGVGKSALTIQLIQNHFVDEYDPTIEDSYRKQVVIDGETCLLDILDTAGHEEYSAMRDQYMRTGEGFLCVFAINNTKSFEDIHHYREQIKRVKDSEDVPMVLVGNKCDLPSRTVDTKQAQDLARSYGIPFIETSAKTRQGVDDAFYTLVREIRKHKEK
T1 sequence (P01116 1-169 isoform P01116-2 G12R): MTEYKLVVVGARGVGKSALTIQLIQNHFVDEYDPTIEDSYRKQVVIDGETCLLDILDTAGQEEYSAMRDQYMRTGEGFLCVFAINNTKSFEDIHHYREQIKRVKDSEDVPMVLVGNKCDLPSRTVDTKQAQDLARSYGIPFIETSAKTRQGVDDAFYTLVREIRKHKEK
T3 sequence (P01116 1-169 isoform P01116-2): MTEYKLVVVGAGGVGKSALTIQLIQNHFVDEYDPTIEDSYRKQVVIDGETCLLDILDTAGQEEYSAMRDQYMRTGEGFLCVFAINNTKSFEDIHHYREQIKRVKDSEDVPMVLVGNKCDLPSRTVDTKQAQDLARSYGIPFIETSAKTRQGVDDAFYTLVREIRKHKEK
T6 sequence (P01116 1-169 isoform P01116-2 G12S): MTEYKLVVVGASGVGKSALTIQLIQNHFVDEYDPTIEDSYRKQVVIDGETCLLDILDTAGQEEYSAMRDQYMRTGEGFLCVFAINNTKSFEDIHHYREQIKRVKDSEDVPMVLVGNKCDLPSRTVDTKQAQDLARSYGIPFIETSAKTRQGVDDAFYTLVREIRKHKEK
T7 sequence (P01116 1-169 isoform P01116-2 G12D): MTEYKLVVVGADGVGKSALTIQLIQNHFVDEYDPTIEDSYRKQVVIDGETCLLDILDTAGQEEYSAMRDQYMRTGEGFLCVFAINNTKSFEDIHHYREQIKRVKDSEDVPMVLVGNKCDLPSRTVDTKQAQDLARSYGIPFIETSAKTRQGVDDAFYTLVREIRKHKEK
T2 sequence (P01116 1-169 isoform P01116-2 G12V): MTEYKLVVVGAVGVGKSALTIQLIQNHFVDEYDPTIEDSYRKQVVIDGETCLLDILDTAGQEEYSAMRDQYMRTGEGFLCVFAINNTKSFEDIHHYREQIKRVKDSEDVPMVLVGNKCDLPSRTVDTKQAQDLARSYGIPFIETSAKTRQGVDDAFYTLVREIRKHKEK

Compound | inhibition at 0.1 µM [1] | IC50 [1] | IC50 (KRas^G12R) | IC50 (KRas^G12V) | inhibition at 0.01 µM (KRas^WT) | IC50 [2] | IC50 [3] | IC50 [4] | inhibition at 0.1 µM [5] | IC50 [5] | IC50 (KRas^G12D) | IC50 [6] | IC50 [7] | IC50 [8] | IC50 (KRas^WT) | IC50 (KRas^G12A) | IC50 (KRas^Q61H) | IC50 (KRas^G12S) | IC50 (KRas^G12C) | IC50 (KRas^G13D) | also measured
Oc1cc(-c2ncc3c(N4CCCC5(CCO5)C4)nc(OC[C@@]45CCCN4C[C@H](F)C5)nc3c2F)c2c(Cl)c(F)ccc2c1 (stereo partly drawn) [Example 773, 5-chloro-6-fluoro-4-(8-fluoro-2-(((2R,7aS)-2-fluorotetrahydro-1H-pyrrolizin-7a(5H)-yl)methoxy)-4-(1-oxa-6-azaspiro[3.5]nonan-6-yl)pyrido[4,3-d]pyrimidin-7-yl)naphthalen-2-ol] | 99% | 3 nM | 2 nM | < 2 nM | 90% | 4 nM | 7 nM | 10 nM | 97% | 8 nM | 3 nM | 18 nM | 2680 nM | 8 nM | – | – | – | – | – | – | inhibition at 0.1 µM ([4]; NCI-H460, 3 h, single point, 100 nM compound, 3 hrs): 96%; inhibition at 0.01 µM (KRas^G12A): 86%; inhibition at 0.01 µM (KRas^Q61H): 95%; inhibition at 0.01 µM (KRas^G12S): 92%; inhibition at 0.1 µM ([6]; HCT-116, 3 h, single point, 100 nM compound, 3 hrs): 90%; inhibition at 0.01 µM (KRas^G12C): 95%; inhibition at 0.01 µM (KRas^G13D): 94%
CCc1c(F)ccc2cc3[nH]ncc3c(-c3ncc4c(N5CCC[C@@](C)(O)C5)nc(OC[C@@]56CCCN5C[C@H](F)C6)nc4c3F)c12 [Example 776, (3R)-1-(7-(5-ethyl-6-fluoro-1H-benzo[f]indazol-4-yl)-8-fluoro-2-(((2R,7aS)-2-fluorohexahydro-1H-pyrrolizin-7a-yl)methoxy)pyrido[4,3-d]pyrimidin-4-yl)-3-methylpiperidin-3-ol] | 84% | 18 nM | 4 nM | 2 nM | 78% | 16 nM | 18 nM | 29 nM | 60% | 18 nM | 2 nM | 75 nM | 9010 nM | 61 nM | – | – | – | – | – | – | inhibition at 0.01 µM (KRas^G12A): 80%; inhibition at 0.01 µM (KRas^Q61H): 80%; inhibition at 0.01 µM (KRas^G12S): 83%; inhibition at 0.01 µM (KRas^G12C): 85%; inhibition at 0.01 µM (KRas^G13D): 84%
C#Cc1c(F)ccc2cc(O)cc(-c3ncc4c(N5CCC[C@@](C)(O)C5)nc(OC[C@@]56CCCN5[C@@H](CO)CC6)nc4c3F)c12 [Example 809, (R)-1-(7-(8-ethynyl-7-fluoro-3-hydroxynaphthalen-1-yl)-8-fluoro-2-(((3R,7aS)-3-(hydroxymethyl)tetrahydro-1H-pyrrolizin-7a(5H)-yl)methoxy)pyrido[4,3-d]pyrimidin-4-yl)-3-methylpiperidin-3-ol] | – | 228 nM | 5 nM | 4 nM | – | 57 nM | 871 nM | 918 nM | – | 2560 nM | 3 nM | 1510 nM | > 10000 nM | 809 nM | 5 nM | 5 nM | 5 nM | 4 nM | 3 nM | 3 nM | –
C[C@@]1(O)CCCN(c2nc(OCC34CCCN3CCC4)nc3c(F)c(-c4c(C5CC5)c(Cl)cc5[nH]ncc45)ncc23)C1 [Example 876, (3R)-1-(7-(6-chloro-5-cyclopropyl-1H-indazol-4-yl)-8-fluoro-2-((tetrahydro-1H-pyrrolizin-7a(5H)-yl)methoxy)pyrido[4,3-d]pyrimidin-4-yl)-3-methylpiperidin-3-ol] | – | 234 nM | 22 nM | 11 nM | – | 112 nM | 661 nM | 561 nM | – | 1040 nM | 10 nM | 1130 nM | > 10000 nM | 1560 nM | 17 nM | 14 nM | 18 nM | 13 nM | 9 nM | 10 nM | –
C[C@@]1(O)CCCN(c2nc(OC[C@@]34CCCN3C[C@H](F)C4)nc3c(F)c(-c4c(C5CC5)c(Cl)cc5[nH]ncc45)ncc23)C1 [Example 880, (3R)-1-(7-(6-chloro-5-cyclopropyl-1H-indazol-4-yl)-8-fluoro-2-(((2R,7aS)-2-fluorotetrahydro-1H-pyrrolizin-7a(5H)-yl)methoxy)pyrido[4,3-d]pyrimidin-4-yl)-3-methylpiperidin-3-ol] | – | 100 nM | 12 nM | 6 nM | – | 24 nM | 153 nM | 176 nM | – | 176 nM | 5 nM | 520 nM | > 10000 nM | 196 nM | 11 nM | 9 nM | 12 nM | 8 nM | 7 nM | 7 nM | –
CN(C)C(=O)c1cc2n(n1)CCCN(c1nc(OC[C@@]34CCCN3C[C@H](F)C4)nc3c(F)c(-c4c(C5CC5)c(Cl)cc5[nH]ncc45)ncc13)C2 [Example 882, 5-(7-(6-chloro-5-cyclopropyl-1H-indazol-4-yl)-8-fluoro-2-(((2R,7aS)-2-fluorotetrahydro-1H-pyrrolizin-7a(5H)-yl)methoxy)pyrido[4,3-d]pyrimidin-4-yl)-N,N-dimethyl-5,6,7,8-tetrahydro-4H-pyrazolo[1,5-a][1,4]diazepine-2-carboxamide] | – | 429 nM | 8 nM | 3 nM | – | 521 nM | 677 nM | 4460 nM | – | > 10000 nM | 2 nM | 7110 nM | > 10000 nM | 1300 nM | 13 nM | 9 nM | 15 nM | 5 nM | 5 nM | 15 nM | –
